These results are taken from patent US5298652A, “N-substituted glycines, inhibitors of phospholipase A2” (Hoffmann-La Roche Inc., priority 1992, dated 1994).

SMILES strings stand for the structures. Where two headings read alike, the source gives them in different places.

The target in assay [1] is T1, HSF-PLA2 (extracellular PLA2 obtained from human synovial fluid) (Homo sapiens, UniProt P14555).
T1 construct: extracellular enzyme obtained from human synovial fluid; from tissue; host or cells: human synovial fluid (pooled)
T1 sequence (P14555 21-144): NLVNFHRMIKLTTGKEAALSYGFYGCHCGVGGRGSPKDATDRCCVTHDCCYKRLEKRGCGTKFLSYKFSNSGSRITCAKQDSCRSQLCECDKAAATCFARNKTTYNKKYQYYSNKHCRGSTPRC
The experiment in a line: Assay for inhibition of HSF-PLA2 in vitro. The settings on record: read-out: % Inhib of HSF-PLA2; for inhibition at 5.8 µM: 5.8 μM test compound. The format is biochemical. On the procedure: Assay for Inhibition of HSF-PLA2 In Vitro
The PLA2 used in this test is the extracellular enzyme obtained from human synovial fluid (HSF-PLA2).
The assay for HSF-PLA2 activity was a modification of the described method [Franson R., Dobrow R., Weiss, J., Elsbach P., and Weglick W. B., J. Lipid Res., 19, 18-23 (1978)] which was conducted using [1-^14 C]-oleate-labelled E. coli substrate in excess at a final concentration of 20,000 dpm/ml. This was equivalent to 18.2 mM of cell membrane phospholipid phosphorus and 2×10^9 autoclaved E. coli/ml. The optimal conditions which were developed for the assay of HSF-PLA2 inhibitors are summarized as follows. A total volume of 0.5 ml of reaction mixture typically had the following final composition: substrate (20,000 dpm/ml); enzyme (0.1% HSF, v/v); 2 mM CaCl2; 150 mM Na^+; 50 mM sodium HEPES buffer, pH 7.3; and 1% dimethyl sulfoxide (DMSO, used to solubilize test inhibitors) in the presence or absence of inhibitor. The reaction was initiated by the addition of HSF-PLA2 and duplicate samples of the mixture were incubated in 13×100 mm glass tubes with shaking for 30 minutes at 37° C. The reaction was terminated by the addition of 2.5 ml of chloroform-methanol (1 to 1.5, v/v). The extraction of lipids from the stopped reaction mixture was conducted by the further additions of 0.5 ml of chloroform and 1 ml of water with mixing. After centrifuging, the lower chloroform phase was transferred to smaller glass tubes and the solvent was evaporated to dryness with a nitrogen stream. The extracted lipid residue was redissolved in […] of a solution containing carrier oleic acid (0.2 mg/ml) in chloroform-methanol [9 to 1, v/v]). The whole lipid extract was applied to a preactivated (30 minutes at 110° C.) silica gel-impregnated glass fiber thin layer chromatography sheet (ITLC type SG sheet from Gelman Sciences Inc., Ann Arbor, Mich.) using hexane-acetic acid (100 to 1, v/v) as the developing solvent. This TLC system rapidly (6 minutes) resolved the enzymatically released product, ^14 C-oleic acid, from the unreacted ^14 C-phospholipid substrate. The unsaturated lipids were located on the chromatogram by a brief exposure to iodine vapor. The oleic acid zone (Rf value 0.95) and phospholipid zone (origin) were cut out, chopped into small pieces, shaken with 2 ml of ethanol-water (80 to 20, v/v) and 15 ml of Aquasol and counted for radio-activity. A control incubation of substrate in the absence of HSF-PLA2 was performed in each experiment. The PLA2 activity of the human synovial fluid was corrected for this small control value. […] The specific activity of PLA2 in the pooled human synovial fluid under the optimal assay conditions was 49.2 nmoles [1-^14 C]-oleic aid released hour^-1 mg^-1. The IC50 (μM concentration of test compound that produces 50% inhibition of PLA2 activity) was determined for each test compound.

Assay [2] concerns adjuvant arthritis induced by Freunds complete adjuvant.
Method: Representative compounds of the invention were tested in the standard adjuvant arthritis model in rats, induced by Freunds complete adjuvant, as described by C.
For assay [3], the system named is croton oil-induced mouse ear edema. The assay is described as follows: Croton oil mouse ear edema test. The format is in vivo, male CD-1 mice. The settings on record: 1 mg topical, coapplied with croton oil; ear punch weight at 6 hours. On the procedure: Croton Oil Mouse Ear Edema Test
The croton oil-induced mouse ear edema test, a model of irritant-induced contact dermatitis, has been used for evaluation of the PLA2 inhibitors by the topical route of administration. This test was carried out as described in the following references: […]
Twenty five μl of a 1% croton oil solution [dissolved in a mixture of pyridine/water/diethyl ether at a ratio of 5/20/75 (croton oil vehicle)] are applied to the outer side of the right ear of 3-4 week old male CD-1 mice (8 animals per group). The test compounds are dissolved directly in the 1% croton oil solution at various concentrations and coapplied. Control animals receive 25 μl of croton oil vehicle on the right ear. Biopsy punches are removed at 6 hours from the right ear of the animals using a 6 mm skin trephine (Roboz, Washington, D.C.) and the wet weight of the ear punches is determined. The weight of the biopsy punches is a measure of ear inflammation, primarily edema. The data are expressed as percent inhibition relative to control groups.
Statistical analysis of the mean edema values of the control versus the treated groups is performed using Student's t-test. The significance of changes from mean value for vehicle-treated animals is as follows (*p<0.05, **p<0.01, ***p<0.005, ns/not significant).

The subject of assay [4] is acetic acid-induced colitis (colonic mucosa myeloperoxidase). The assay is described as follows: Acetic acid-induced colitis in rats. To be noted: 10 mg/kg po. Type of assay: in vivo, male rats (Sprague-Dawley). The source says: Acetic Acid-Induced Colitis in Rats
The rat acetic acid-induced colitis bioassay has been described by J. E. Krawisz, et al. in Amer. J. Proc. Gastro. Col. Rec. Surg. 31, 11-18 (1980), and by P. Sharon and W. F. Stenson in Gastroenterology 88, 55-63 (1985) and 86, 453-460 (1984). Acetic acid-induced colitis is characterized by the movement of inflammatory cells into the colon, with the number of such cells in the mucosa being measured by the activity of myeloperoxidase, a marker enzyme for these cells. Positive desirable activity is indicated by a reduction in the high levels of myeloperoxidase caused by acetic acid. Male rats (Sprague-Dawley), weighing 150 to 300 g, were pretreated twice daily for two days with either the vehicle (water or dimethylsulfoxide) or the test inhibitor compound suspended in water or dissolved in dimethylsulfoxide and orally administered. […] The colonic mucosa was surgically removed and homogenized in an aqueous buffer at pH 6 with a Tissumizer or similar device and myeloperoxidase was measured in the homogenate using o-phenyl enediamine as a chromagen, as described by A. Voller, D. E. Bidwell and A. Bartlett in "The Enzyme Linked Immunosorbent Assay (ELISA)", Zoological Soc., London, 1979, pages 29-30. […]

In assay [5] the test system is carrageenan-induced paw edema. The assay is described as follows: Rat carrageenan paw edema. The settings on record: 30 mg/kg ip, 1 hr prior to carrageenan. The format is in vivo, Lewis rats. On the procedure: Rat Carrageenan Paw Edema
Representative compounds of the invention were tested in rat carrageenan-induced paw edema to determine their ability to inhibit this acute inflammatory response. Test compounds were administered intraperitoneally or orally to groups of seven Lewis rats (~200 gm) 1 hr prior to carrageenan administration. The test compounds were dissolved in dimethyl sulfoxide for intraperitoneal administration and dissolved or suspended in Labrafil […] for oral administration. At 0 hour, 0.1 mL of 1% carrageenan dissolved in pyrogen free […] was injected subplanetary into the right hind paw to elicit the inflammatory response. The volume (in mL) of the right hind paw was measured by immersion of the paw to the level of the lateral malleolus in an aqueous plethysmometer immediately prior to the injection of carrageenan and then at 1, 2 and 4 hr after carrageenan injection. The paw edema was calculated by subtracting the zero time reading from the readings taken after injection. The percent change of the edema volume from the vehicle treated control was calculated to determine the activity of the test compound. Statistical analysis of the mean paw edema values of the control versus the treated groups was performed using Student's t-test.
(In general: The carrageenan paw model is a standard test of acute inflammation.)

Turning to `CCCCCCCCCCCCCCCCCCOc1cccc(C(=O)N(CC(=O)O)CC(=O)O)c1` [Example 4, N-(Carboxymethyl)-N-[3-(octadecyloxy)benzoyl]glycine], the inhibition at 5.8 µM in assay [1] was found to be 50%. Besides, the “Change in Paw Volume in ml, Treated” value in assay [2] (dose 10 mg/kp ip) was -0.14 ± 0.06 mL. In addition, the “% Inhib of Croton Oil Mouse Ear Edema (1 mg)” value (from here on “% Inhib … (1 mg)”) in assay [3] is given as 17%. In addition, in assay [4], the “% Inhib of Myeloperoxidase Accumulation” value was determined as 112 ± 53%. Moreover, the “% Inhib of Carrageenan Paw Edema 2 hr 30 mg/kg ip” value in assay [5] is on record as 50%.

As for `CCCCCCCCCCCCCCCCCCOc1ccc(O)c(C(=O)N(CC(=O)O)CC(=O)O)c1` [Example 62, N-(carboxymethyl)-N-[2-hydroxy-5-(octadecyloxy)benzoyl]glycine], in assay [1], the inhibition at 5.8 µM was found to be 50%. The “Change in Paw Volume in ml, Treated” value in assay [2] (dose 30 mg/kp ip) was -0.11 ± 0.06 mL. In addition, the “% Inhib … (1 mg)” value in assay [3] is listed as 65%. For the same compound, the “% Inhib of Carrageenan Paw Edema 2 hr 30 mg/kg ip” value in assay [5] amounted to 57%.

Take `CCCCCCCCCCCCCCCCCCOc1ccc(C(=O)C(=O)N(CC(=O)O)CC(=O)O)cc1` [Example 65, N-(Carboxymethyl)-N-[2-[4-(octadecyloxy)phenyl]-1,2-dioxoethyl]glycine]: in assay [1] (1 μM test compound), the inhibition at 1 µM is 74%. Moreover, in assay [2] (dose 10 mg/kp ip), the “Change in Paw Volume in ml, Treated” value was -0.07 ± 0.08 mL. Further, in assay [3], the “% Inhib … (1 mg)” value is given as 44%. Besides, the “% Inhib of Carrageenan Paw Edema 2 hr 30 mg/kg ip” value in assay [5] worked out at 71%.
